One assay deals with c-GMP. Conditions: cited from earlier work.
For assay [1] the following is noted: in vitro; versus GTN and SNAP; cited from earlier work.
Another assay deals with ARPE-19 cells. Put plainly: 7-ketocholesterol-induced RPE cell death, WST-1 cell viability. Format: cell-based. Conditions: for % Survival: compared to media-treated cells. Here is the method: Compound 1 was evaluated for its ability to prevent 7-ketocholesterol-induced retinal pigmented epithelial (RPE) cell death in vitro. ARPE-19 cells were grown in DMEM:F12 (Invitrogen) (1:1) with 10% FBS (HyClone) and 56 mM Na Bicarbonate (Gibco) in a 10% CO2 humidified 37° C. incubator. Cells were split at a ratio of 1:3 once per week and fed every 2-3 days. ARPE-19 cells were plated at a density of 12,500 cells per well in 100 μL, which is approximately […].
7-ketocholesterol (5-CHOLESTEN-3β-OL-7-ONE) and Cholesterol (5-CHOLESTEN-3β-OL) (Steraloids, Inc., Newport R.I.) were resuspended in 37° C. 45% 2-hydroxylpropyl-β-cyclodextrin at a concentration of 10 mM. Working dilutions of 1 mM are subsequently made in 37° C. DMEM:/F12 containing 0.1% FBS and NaBicarb. Further dilutions (5 to 30 μM) for treatment were also made in 37° C. DMEM:F12 with 0.1% FBS and NaBicarb to maintain activity of the 7-ketocholesterol. As negative controls, vehicle alone and cholesterol suspended in 2-HP-β-cyclodextrin were included in each experiment.
Cell proliferation reagent WST-1 (Roche), a tetrazolium salt that is cleaved to formazan through the mitochondrial succinate-tetrazolium-reductase system in live cells, was used as a measure of cell viability. Cells were treated with 7-ketocholesterol for 1 day, at which time 10 μL at of WST-1 reagent was added to each well containing 100 μL at of media. The plates were then incubated for 1-4 hours to allow for adequate color development and then absorbance was read in a microplate ELISA reader at […]. WST reagent was also added to one set of control wells containing media only. These readings were subtracted from each of the WST readings as background. Cell viability for all treated wells was normalized to the well with untreated cells and data is presented as percent survival as compared to untreated. The table below summarizes the results.
A general note: Tetrazolium assays rely on reduction of a dye to a coloured formazan, in cell work by metabolically active cells.

The subject of assay [2] is cynomolgus monkeys with ocular hypertension. The assay can be described thus: IOP reduction in lasered ocular hypertensive monkeys. The format is in vivo. Conditions: 150 μg in 30 μL drop, topical, lasered eye. The method, then: The ability of compound 1 of the present invention to reduce IOP was evaluated in cynomolgus monkeys with ocular hypertension produced by previous laser trabeculoplasty in the right eye. Animals had been trained to sit in restraint chairs and conditioned to accept experimental procedures without chemical restraint. Animals were administered a 30 μL drop containing 150 μg of compound 1 dissolved in vehicle to the lasered eye. IOP was determined with a pneumatonometer after light corneal anesthesia with dilute proparacaine. The drug was dosed 35 minutes after the baseline IOP was measured.

For assay [3] the following is noted: vasodilators; cited from earlier work.

For the molecule `CC1(C)CC(O[N+](=O)[O-])CC(C)(C)N1[O]` [Compound 1], the c-GMP concentration entry in the assay with c-GMP is “significant increase”. In addition, the “c-GMP effect relative to GTN” value with c-GMP was “comparable to that of GTN”. Besides, in assay [1], the vasorelaxation efficacy result was “superior activity”. In addition, the figures for the RPE cytoprotection entry in the assay with ARPE-19 cells (10 μM) and in the assay with ARPE-19 cells (100 μM) were “significant” and “complete”, respectively. The “% Survival” value in the assay with ARPE-19 cells (compound at 100 nM, 7-ketocholesterol-treated cells) was 60%; with ARPE-19 cells (compound at 1 μM, 7-ketocholesterol-treated cells), 60%; with ARPE-19 cells (compound at 10 μM, 7-ketocholesterol-treated cells), 75%; with ARPE-19 cells (compound at 100 μM, 7-ketocholesterol-treated cells), 100%. The results for the “% IOP change from baseline” value in assay [2] (1 hour after dosing), in assay [2] (3 hours after dosing) and in assay [2] (6 hours after dosing) were −15.3%, −16.7% and −20.7%, respectively. Further, the NO-tolerance in vivo result in assay [3] is on record as “do not produce NO-tolerance in vivo”.

With `CC1(C)CC(CO[N+](=O)[O-])C(C)(C)N1[O]` (stereo not drawn) [Compound 2, 3-Nitratomethyl-Proxyl], the NO-tolerance in vivo result in assay [3] was “do not produce NO-tolerance in vivo”.

On to `CC(C)CCC[C@@H](C)[C@H]1CC[C@H]2[C@@H]3C(=O)C=C4C[C@@H](O)CC[C@]4(C)[C@H]3CC[C@]12C` [7-ketocholesterol, 5-CHOLESTEN-3β-OL-7-ONE, reference compound], for which the “% Survival” value with ARPE-19 cells (7-ketocholesterol 20 μM alone, 1 day) is given as 50%.

Source of the values: patent US20140371267A1, “OPHTHALMIC COMPOSITION WITH NITRIC OXIDE DONOR COMPOUND AND METHOD OF FORMING AND USING SAME” (ALCON RESEARCH, LTD., priority 2009, published 2014).
